Test results taken from ChEMBL document CHEMBL1201862, “PubChem BioAssay data set” (2004).
Calls of active or inactive are those of the source.

What was measured:
[1] = molecular target: Protein Rev (Human immunodeficiency virus type 1 group M subtype B (isolate HXB2)(HIV-1), UniProt P04618); experiment: inhibitors of Rev binding to RRE RNA, dose response, biochemical, fluorescence polarization, HIV-1 (AID 434976); set-up: species or system Human immunodeficiency virus 1
[2] = molecular target: Female germline-specific tumor suppressor gld-1 (Caenorhabditis elegans, UniProt Q17339); experiment: inhibitors of GLD-1 binding to TGE RNA, dose response, biochemical, fluorescence polarization, C. elegans (AID 2802);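 further: fluorescence polarization of labeled TGE RNA bound by purified gld-1 protein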
[3] = A cytotoxicity screen of small molecule inhibitors of the PhoP region in Salmonella typhi identified in the primary screen. [Related pubchem assays: 1850, 1864, 1985 ]; assay type: functional
[4] = molecular target: Transitional endoplasmic reticulum ATPase (Homo sapiens, UniProt P55072, C522A); experiment: C522A mutant p97 ATPase inhibitors, dose response, counter-screen for p97 inhibitor project, biochemical, luminescence (AID 1544)
[5] = molecular target: NS3 (Hepatitis C virus, UniProt A3EZJ3); experiment: PubChem AID 2173; set-up: species or system Hepacivirus hominis
[6] = molecular target: Transitional endoplasmic reticulum ATPase (Homo sapiens, UniProt P55072); experiment: p97 ATPase inhibitors, dose response, biochemical (AID 1534)
[7] = tested on: HeLa; experiment: HeLa cell cytotoxicity, dose response, cytotoxicity control, 24 h, cherry-picked samples (AID 504726); assay type: functional, cell-based; details: Homo sapiens;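 further: potency for cytotoxicity as loss of luminescence signal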
[8] = tested on: Salmon testes DNA; experiment: DNA intercalators displacing acridine orange, dose response, artefact control for KSHV LANA DNA-binding inhibitor project, biochemical, fluorescence polarization, cherry-picked samples, set 2 (AID 504727); set-up: species or system Salmonidae
[9] = molecular target: T1, Protein RecA (Mycobacterium tuberculosis, UniProt P9WHJ3); experiment: Fluorescence Cell-Free Homogeneous Dose Retest to Identify Inhibitors of RecA-Intein Splicing Activity. [Related pubchem assays (depositor defined):AID2097, AID2223, AID489010, AID492950]; assay type: functional
T1 sequence (P9WHJ3 whole entry): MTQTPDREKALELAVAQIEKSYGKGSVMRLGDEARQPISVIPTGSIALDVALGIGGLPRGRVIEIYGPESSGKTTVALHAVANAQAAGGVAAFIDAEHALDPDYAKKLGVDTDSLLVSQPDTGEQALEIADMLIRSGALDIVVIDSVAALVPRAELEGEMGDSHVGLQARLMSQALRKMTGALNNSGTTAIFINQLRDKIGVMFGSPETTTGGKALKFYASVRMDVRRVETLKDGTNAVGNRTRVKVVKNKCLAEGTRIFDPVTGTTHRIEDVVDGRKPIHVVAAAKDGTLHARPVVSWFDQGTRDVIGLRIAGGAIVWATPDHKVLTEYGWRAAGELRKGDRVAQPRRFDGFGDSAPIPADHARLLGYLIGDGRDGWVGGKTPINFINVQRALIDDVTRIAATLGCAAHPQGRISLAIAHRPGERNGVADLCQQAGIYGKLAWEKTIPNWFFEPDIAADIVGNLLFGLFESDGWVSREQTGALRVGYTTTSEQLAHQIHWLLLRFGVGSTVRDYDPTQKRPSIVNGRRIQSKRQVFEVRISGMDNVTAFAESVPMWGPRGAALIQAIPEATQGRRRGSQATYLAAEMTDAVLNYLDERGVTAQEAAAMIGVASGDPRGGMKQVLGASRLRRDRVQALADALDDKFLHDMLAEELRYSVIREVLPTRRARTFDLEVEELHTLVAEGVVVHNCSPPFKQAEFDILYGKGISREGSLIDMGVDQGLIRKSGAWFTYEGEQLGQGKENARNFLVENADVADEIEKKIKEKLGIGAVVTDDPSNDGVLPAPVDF

[10] = molecular target: T2, Histone-lysine N-methyltransferase NSD2 (Homo sapiens, UniProt O96028); assay type: biochemical
T2 sequence (O96028 whole entry): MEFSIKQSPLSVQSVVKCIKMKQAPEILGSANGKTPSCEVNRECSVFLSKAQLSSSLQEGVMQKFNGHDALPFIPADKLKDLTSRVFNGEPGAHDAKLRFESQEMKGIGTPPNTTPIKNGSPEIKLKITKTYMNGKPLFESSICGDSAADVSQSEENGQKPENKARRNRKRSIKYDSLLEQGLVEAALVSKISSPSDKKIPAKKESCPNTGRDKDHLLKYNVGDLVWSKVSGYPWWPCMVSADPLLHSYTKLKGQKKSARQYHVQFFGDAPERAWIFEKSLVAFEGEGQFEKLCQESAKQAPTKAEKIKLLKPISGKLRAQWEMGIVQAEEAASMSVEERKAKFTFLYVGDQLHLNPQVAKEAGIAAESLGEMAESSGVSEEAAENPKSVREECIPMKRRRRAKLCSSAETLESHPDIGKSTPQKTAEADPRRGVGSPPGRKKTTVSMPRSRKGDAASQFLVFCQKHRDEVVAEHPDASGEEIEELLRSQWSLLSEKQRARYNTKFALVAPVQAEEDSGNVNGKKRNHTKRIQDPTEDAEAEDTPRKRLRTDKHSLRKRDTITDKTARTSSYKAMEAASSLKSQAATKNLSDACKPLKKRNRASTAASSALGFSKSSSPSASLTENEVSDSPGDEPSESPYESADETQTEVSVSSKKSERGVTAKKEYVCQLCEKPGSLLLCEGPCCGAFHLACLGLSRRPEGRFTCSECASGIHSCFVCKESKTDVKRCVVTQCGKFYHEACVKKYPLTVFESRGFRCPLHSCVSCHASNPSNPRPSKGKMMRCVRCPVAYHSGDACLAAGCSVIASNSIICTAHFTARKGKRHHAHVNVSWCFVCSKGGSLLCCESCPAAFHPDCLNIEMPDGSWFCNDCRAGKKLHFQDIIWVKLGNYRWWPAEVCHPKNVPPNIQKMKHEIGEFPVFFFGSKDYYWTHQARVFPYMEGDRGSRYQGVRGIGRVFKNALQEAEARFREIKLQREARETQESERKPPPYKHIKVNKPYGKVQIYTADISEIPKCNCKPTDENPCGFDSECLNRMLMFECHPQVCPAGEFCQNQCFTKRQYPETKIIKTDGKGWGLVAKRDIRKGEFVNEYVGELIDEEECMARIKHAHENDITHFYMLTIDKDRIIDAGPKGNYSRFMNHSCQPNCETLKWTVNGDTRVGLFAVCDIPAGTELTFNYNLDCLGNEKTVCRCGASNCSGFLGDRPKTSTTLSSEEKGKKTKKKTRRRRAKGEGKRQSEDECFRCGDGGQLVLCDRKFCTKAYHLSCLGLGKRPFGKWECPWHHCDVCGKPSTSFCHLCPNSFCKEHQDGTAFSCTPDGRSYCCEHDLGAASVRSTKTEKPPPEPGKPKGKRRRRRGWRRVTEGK

Sequence of Protein Rev (P04618 whole entry): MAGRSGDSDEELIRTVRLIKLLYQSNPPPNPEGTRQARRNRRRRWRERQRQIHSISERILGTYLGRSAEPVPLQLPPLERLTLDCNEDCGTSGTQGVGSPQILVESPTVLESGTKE
Sequence of Transitional endoplasmic reticulum ATPase (Homo sapiens, UniProt P55072) (P55072 whole entry): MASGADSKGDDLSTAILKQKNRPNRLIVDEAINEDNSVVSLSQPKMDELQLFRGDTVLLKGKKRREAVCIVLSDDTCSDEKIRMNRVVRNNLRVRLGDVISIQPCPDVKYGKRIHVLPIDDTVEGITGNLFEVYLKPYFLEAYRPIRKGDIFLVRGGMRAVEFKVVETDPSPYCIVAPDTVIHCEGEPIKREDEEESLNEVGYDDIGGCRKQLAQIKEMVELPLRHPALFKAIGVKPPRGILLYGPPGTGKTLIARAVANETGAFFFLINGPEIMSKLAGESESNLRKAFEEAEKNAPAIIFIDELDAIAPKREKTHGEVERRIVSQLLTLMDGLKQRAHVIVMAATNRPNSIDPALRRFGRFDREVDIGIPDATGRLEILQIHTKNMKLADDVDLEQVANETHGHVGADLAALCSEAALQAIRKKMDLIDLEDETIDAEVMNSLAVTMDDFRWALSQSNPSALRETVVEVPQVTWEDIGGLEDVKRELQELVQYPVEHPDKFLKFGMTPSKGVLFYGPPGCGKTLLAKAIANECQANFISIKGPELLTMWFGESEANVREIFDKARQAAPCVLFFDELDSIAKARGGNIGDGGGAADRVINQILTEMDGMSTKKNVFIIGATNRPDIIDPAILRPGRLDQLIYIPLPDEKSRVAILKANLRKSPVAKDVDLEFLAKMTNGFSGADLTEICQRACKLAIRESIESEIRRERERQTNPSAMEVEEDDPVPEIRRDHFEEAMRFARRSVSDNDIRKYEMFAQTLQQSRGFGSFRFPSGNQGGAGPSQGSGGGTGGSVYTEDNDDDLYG
Sequence of Transitional endoplasmic reticulum ATPase (Homo sapiens, UniProt P55072, C522A) (P55072 2-806 C522A limits assumed): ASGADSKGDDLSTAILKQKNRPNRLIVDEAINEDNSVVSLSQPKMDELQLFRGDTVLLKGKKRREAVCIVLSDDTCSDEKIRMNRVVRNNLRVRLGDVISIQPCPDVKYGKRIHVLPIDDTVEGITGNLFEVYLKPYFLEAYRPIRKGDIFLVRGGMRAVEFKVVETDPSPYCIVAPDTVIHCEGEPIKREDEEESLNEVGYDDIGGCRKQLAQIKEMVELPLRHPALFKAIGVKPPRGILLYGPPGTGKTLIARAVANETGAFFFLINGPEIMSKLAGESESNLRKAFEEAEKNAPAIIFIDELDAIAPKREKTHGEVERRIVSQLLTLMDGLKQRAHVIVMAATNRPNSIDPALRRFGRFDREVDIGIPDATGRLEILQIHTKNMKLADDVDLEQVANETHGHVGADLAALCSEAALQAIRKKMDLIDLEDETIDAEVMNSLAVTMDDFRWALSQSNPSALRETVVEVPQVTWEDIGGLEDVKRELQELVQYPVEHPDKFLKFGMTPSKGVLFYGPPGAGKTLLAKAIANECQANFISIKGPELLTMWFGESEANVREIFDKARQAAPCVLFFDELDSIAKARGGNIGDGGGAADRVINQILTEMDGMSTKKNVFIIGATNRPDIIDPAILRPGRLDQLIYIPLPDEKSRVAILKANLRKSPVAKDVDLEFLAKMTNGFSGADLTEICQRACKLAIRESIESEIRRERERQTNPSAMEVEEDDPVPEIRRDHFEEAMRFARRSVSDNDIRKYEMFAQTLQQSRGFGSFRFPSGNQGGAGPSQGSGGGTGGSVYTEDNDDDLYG
Sequence of Female germline-specific tumor suppressor gld-1 (Q17339 whole entry): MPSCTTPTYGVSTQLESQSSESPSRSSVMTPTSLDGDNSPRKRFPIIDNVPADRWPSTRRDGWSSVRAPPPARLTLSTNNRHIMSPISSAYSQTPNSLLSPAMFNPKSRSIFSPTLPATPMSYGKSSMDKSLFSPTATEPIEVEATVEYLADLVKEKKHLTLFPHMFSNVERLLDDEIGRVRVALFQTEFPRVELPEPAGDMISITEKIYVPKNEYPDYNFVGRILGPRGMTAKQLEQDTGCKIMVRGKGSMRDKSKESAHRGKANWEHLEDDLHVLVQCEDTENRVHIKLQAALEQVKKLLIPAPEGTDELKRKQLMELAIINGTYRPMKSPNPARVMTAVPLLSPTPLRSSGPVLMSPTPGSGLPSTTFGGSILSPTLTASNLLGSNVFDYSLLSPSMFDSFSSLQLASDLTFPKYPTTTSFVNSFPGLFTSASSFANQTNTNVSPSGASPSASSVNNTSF
Sequence of NS3 (A3EZJ3 whole entry): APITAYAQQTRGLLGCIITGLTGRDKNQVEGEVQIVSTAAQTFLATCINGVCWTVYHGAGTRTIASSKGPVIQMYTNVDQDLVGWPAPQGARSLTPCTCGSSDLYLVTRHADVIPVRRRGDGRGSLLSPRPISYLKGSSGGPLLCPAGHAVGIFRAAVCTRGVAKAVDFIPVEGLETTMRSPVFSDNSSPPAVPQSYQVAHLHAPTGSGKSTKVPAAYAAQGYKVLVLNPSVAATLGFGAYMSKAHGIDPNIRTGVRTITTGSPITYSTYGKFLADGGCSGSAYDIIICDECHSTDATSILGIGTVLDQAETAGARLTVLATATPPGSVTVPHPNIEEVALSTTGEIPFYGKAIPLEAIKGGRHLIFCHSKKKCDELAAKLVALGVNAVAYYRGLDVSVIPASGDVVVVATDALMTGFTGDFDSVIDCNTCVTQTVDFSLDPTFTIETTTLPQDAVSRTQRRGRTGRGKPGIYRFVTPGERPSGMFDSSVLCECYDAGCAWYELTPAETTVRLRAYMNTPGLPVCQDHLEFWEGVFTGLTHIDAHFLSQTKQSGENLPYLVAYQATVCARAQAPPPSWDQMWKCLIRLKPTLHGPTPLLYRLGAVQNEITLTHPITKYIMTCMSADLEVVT

## Nc1cccc2c1C(=O)N(Cc1cccc(Cl)c1)C2=O
[1]
  IC50: 17.9 µM (not active)
[2]
  IC50: 4.97 µM (active)

## CCCCn1c(NS(=O)(=O)c2ccc(C)cc2)c(S(=O)(=O)c2ccccc2)c2nc3ccccc3nc21
[3]
  EC50: > 50 µM (active)
[4]
  IC50: > 50 µM (not active)
[5]
  IC50: 0.662 µM (active)
[6]
  IC50: > 50 µM (not active)
[7]
  AC50: 313 µM (active)
[8]
  AC50: 43.7 µM (active)
[9]
  EC50: > 380 µM (inconclusive)
[10]
  AC50: 12.2 µM (active)
